Laboratory results published in patent US5733559A, “Controlled release inclusion system of glycolic acid in β-cyclo-dextrin and process for the above system preparation” (priority 1995, dated 1998).
Values joined by “and” are separate entries in the source; they are usually repeats but may differ in a detail not shown here. Equal entries are not always repeated.

What was measured:
[1] = test system: cutaneous area (volar surfaces of the forearm); experiment: Patch test (epicutaneous test): cutaneous irritation by occlusive application, average index of cutaneous irritation (IIM)
Source text: The first series of tests consisted in the test of cutaneous irritation or epicutaneous test (Patch Test) by means of occlusive application.
(§1) Free glycolic acid 70% (AG)--Du Pont
Ten healthy subjects were selected, of both sex, with negative anamnesis for allergic dermatitis by contact (DAC) and without any other pathology in process during the execution of the Test.
The ready to use plasters for dermoreactions used for the Patch Test were made of white "non woven fabric" with a dermatophilic mass of acrylic adhesive, in the shape of 1 cm diameter disc, covered by small squares of polyethylene.
The test was performed as follows: after cleansing with 70% alcoholic solution (denatured ethyl alcohol the cutaneous area to be treated (volar surfaces of the forearm), occlusive applications of the substance under examination were carried out for one hour. After that period, the plasters were removed and 15 minutes later the cutaneous reaction was evaluated and classified on the basis of an arbitrary scale.
The cutaneous reactions considered were:
According to the arbitrary scale used for the classification of the cutaneous reactions, 0 corresponds to the absence of reaction, 1 point to a light degree, 2 points to a moderate degree of reaction and 3 points to a reaction of serious gravity.
For each volunteer scores were recorded for each parameter and the mean value was calculated. […]

[2] = test system: skin of the face (periocular and zygomatic zone); experiment: Non occlusive application: cutaneous tolerability test on the face
Procedure: For the second series of tests cutaneous irritation was determined following non-occlusive applications.
Non occlusive application
as §1
Eight healthy volumary women were chosen, aged between 30 and 50 (average age 37,5).
The samples were applied on one half of the face (periocular and zygomatic zone) using a badger brush. The duration of the application was decided according to the type of skin and to the cutaneous reaction of the individual volunteer. 5 applications were carried out, one every three or more days according to the subjects.
The irritating effect was assessed before the application and one hour after the application.
The parameters considered to clinically evaluate the irritating degree of the substance under examination were the following:
irritative symptoms: erythema, pruritus, burning, desquamation, blistering, eczematous reaction.
The irritating effect was assessed on the basis of an arbitrary scale, based on clinical experience, recorded as follows:
1=Modest reaction (slight reddening, pruritus)
2=Irritative reaction (erythema, pruritus, desquamation)
3=Strong irritative reaction (erythema, burning, strong pruritus, desquamation, and more)
After every application the cutaneous reactions of each volunteer were evaluated and a relative score was given.

[3] = application time 3 min, 50% concentration, pH 2,5, right side of face, one value per subject

O=C(O)CO [AG, glycolic acid]
average index of cutaneous irritation of AG compared to that of CCAG ([1]; 10% concentration): significantly and appreciably higher | average index of cutaneous irritation of free glycolic acid compared to that of glycolic acid complexed with cyclodextrins ([1]; at comparable concentrations (5%)): slightly higher | case of average to serious irritation after the second application, requiring suspension of the treatment ([2]; 8 subjects, right side periocular and zygomatic area): one | irritation score (arbitrary scale 0-3), 1st application ([2]; application time 1 min, 50% concentration, pH 2,5, AG right side, CCAG left side of face, one value per subject): 0 | irritation score (arbitrary scale 0-3), 2nd application ([2]; application time 2 min, 50% concentration, pH 2,5, AG right side, CCAG left side of face, one value per subject): 2/3 and 0 | irritation score (arbitrary scale 0-3), 3rd application ([2]; application time 3 min, 50% concentration, pH 2,5, AG right side, CCAG left side of face, one value per subject): 2 and 0 | irritation score (arbitrary scale 0-3), 4th application, AG [2, 3]: 0 | irritation score (arbitrary scale 0-3), 5th application, AG [2, 3]: 0 | cases of irritation of average gravity after the third application ([2]; in vivo): 2 cases | cases of irritation of grade 2 and 2/3 ([2]; in vivo): 3 cases | irritation because of which subject 1 had to suspend treatment ([2]; subject 1, second application): average to serious irritation
